According to patent US11440907B1 (Merck Patent GmbH, priority 2018, dated 2022):
pIC50: −log10 of the molar value. Like-named read-outs stand apart in the source and are kept apart here.

Tested on: β-catenin-TCF-mediated reporter transcription activity in Colo 205 cells
Test: Colo 205 reporter assay (TCF/LEF promoter-driven firefly luciferase)
Assay type: cell-based
Conditions: Colo 205 TCF/LEF luciferase reporter, 5 hours after compound addition, 384 well, read-out: Colo205 IC50
Excerpt: The compounds of the invention described herein were screened using the assay procedure for β-catenin-TCF-mediated reporter transcription activity described below.
Reporter cell lines were generated by stably transfecting cells of cancer cell lines (e.g., colon cancer) with a plasmid reporter construct (From SABiosciences, a QIAGEN company) that includes TCF/LEF promoter driving expression of the firefly luciferase gene. TCF/LEF reporter constructs were made in which TCF/LEF promoter, a promoter with optimal number of TCF/LEF binding sites designed by SABiosciences, was linked upstream of the firefly luciferase gene. This construct could also include a puromycin resistance gene as a selectable marker. This construct could also be used to stably transfect Colo 205 cells, a colon cancer cell line having a mutated APC gene that causes a constitutively active β-catenin. A control cell line was generated using another plasmid construct containing the luciferase gene under the control of a CMV basal promoter which is not activated by β-catenin.
Colo 205 Cultured cells with a stably transfected reporter construct were plated at approximately 10,000 cells per well into 384 well multi-well plates for twenty four hours. The testing compounds were then added to the wells in 2-fold serial dilutions using a twenty micromolar top concentration. A series of control wells for each cell type received only compound solvent. Five hours after the addition of compound, reporter activity for luciferase was assayed, by addition of the SteadyGlo luminescence reagent (Promega). The reporter luminescence activity was measured using Pherastar plate reader (BMG Labtech). Readings were normalized to DMSO only treated cells, and normalized activities were then used in the IC50 calculations. The Colo 205 reporter assay data are summarized in Table 3: A<0.3 μM; 0.3 μM≤B<1.0 μM; 1.0 μM≤C<5.0 μM; D≥5.0 μM.

SMILES	pIC50 (Homo sapiens)	pIC50
COc1ccc(O)cc1[C@H]1CCCCCN1c1cc(C)nc(N)n1 (single isomer, unassigned) [I-127]	> 6.52	
Cc1cc(N2CCCOCC2c2cc3c(cc2Cl)OCO3)nc(N)n1 (racemic) [I-113, (+/−)-4-[3-(6-chloro-1,3-benzodioxol-5-yl)-1,4-oxazepan-4-yl]-6-methyl-pyrimidin-2-amine]	6.00 to 6.52	
CSc1ccccc1C1CCCCCN1c1cc(C)nc(N)n1 (racemic) [I-5, (+/−)-4-methyl-6-(2-(2-(methylthio)phenyl)azepan-1-yl)pyrimidin-2-amine]	6.00 to 6.52	
COC(=O)c1ccc(C2COCCCN2c2cc(C)nc(N)n2)c(OC)c1 (stereo not shown) [I-290]	6.00 to 6.52	
Cc1cc(N2CCCOCC2c2ccc(-n3cccn3)cc2Cl)nc(N)n1 (racemic) [I-133, (+/−)-4-(3-(2-chloro-4-(1H-pyrazol-1-yl)phenyl)-1,4-oxazepan-4-yl)-6-methylpyrimidin-2-amine]	6.00 to 6.52	
Cc1cc(N2CCCCCC2c2ccccc2F)nc(N)n1 (stereo not shown) [I-36, 4-(2-(2-fluorophenyl)azepan-1-yl)-6-methylpyrimidin-2-amine]	6.00 to 6.52	
COc1ccc(Cl)c([C@H]2COCCCN2c2cc(C)nc(N)n2)c1 (single isomer, unassigned) [I-138]	> 6.52	
Cc1cc(N2CCCOCC2c2ccc(N)cc2Cl)nc(N)n1 (racemic) [I-140, (+/−)-4-[3-(4-amino-2-chloro-phenyl)-1,4-oxazepan-4-yl]-6-methyl-pyrimidin-2-amine]	> 6.52	
Cc1cc(N2CCCOCC2c2cc([S+](C)[O-])ccc2Cl)nc(N)n1 (stereo not shown) [I-123]		6.00 to 6.52
CC(=O)Nc1ccc(C2COCCCN2c2cc(C)nc(N)n2)c(Cl)c1 (racemic) [I-141, (+/−)-N-(4-(4-(2-amino-6-methylpyrimidin-4-yl)-1,4-oxazepan-3-yl)-3-chlorophenyl)acetamide]	> 6.52	
Cc1cc(N2CCCOCC2c2ccc(C(=O)N(C)C)cc2Cl)nc(N)n1 (stereo not shown) [I-293]	6.00 to 6.52	
COC(=O)c1ccc(Cl)c(C2COCCCN2c2cc(C)nc(N)n2)c1 (racemic) [I-126, (+/−)-Methyl 3-(4-(2-amino-6-methylpyrimidin-4-yl)-1,4-oxazepan-3-yl)-4-chlorobenzoate]	6.00 to 6.52	
Cc1cc(N2CCCOC[C@@H]2c2cc(N)ccc2Cl)nc(N)n1 (single isomer, unassigned) [I-87]	> 6.52	
Cc1cc(Nc2ccc(Cl)c(C3COCCCN3c3cc(C)nc(N)n3)c2)nc(N)n1 (stereo not shown) [I-294]	6.00 to 6.52	
CNC(=O)c1ccc(C2COCCCN2c2cc(C)nc(N)n2)c(Cl)c1 (stereo not shown) [I-106]	> 6.52	
Cc1cc(N2CCCOCC2c2cc([S+](C)[O-])ccc2Cl)nc(N)n1 (stereo not shown) [I-122]	6.00 to 6.52	
COC(=O)c1ccc(C2COCCCN2c2cc(C)nc(N)n2)c(Cl)c1 (stereo not shown) [I-292]	6.00 to 6.52	
COc1ccc(C(=O)N(C)C)cc1C1CCCCCN1c1cc(C)nc(N)n1 (racemic) [I-115, (+/−)-3-(1-(2-amino-6-methylpyrimidin-4-yl)azepan-2-yl)-4-methoxy-N,N-dimethylbenzamide]	6.00 to 6.52	
COc1ccc(OC)c([C@H]2COCCCN2c2cc(C)nc(N)n2)c1 (single isomer, unassigned) [I-101]	> 6.52	
Cc1cc(N2CCCOCC2c2cc(O)ccc2Cl)nc(N)n1 (racemic) [I-147, (+/−)-3-[4-(2-amino-6-methyl-pyrimidin-4-yl)-1,4-oxazepan-3-yl]-4-chloro-phenol]	> 6.52	
CC(=O)Nc1ccc(Cl)c(C2COCCCN2c2cc(C)nc(N)n2)c1 (stereo not shown) [I-84]	> 6.52	
Cc1cc(N2CCCOCC2c2ccc(C(=O)N(C)C3CCOCC3)cc2Cl)nc(N)n1 (racemic) [I-153, (+/−)-4-(4-(2-amino-6-methylpyrimidin-4-yl)-1,4-oxazepan-3-yl)-3-chloro-N-methyl-N-(tetrahydro-2H-pyran-4-yl)benzamide]	6.00 to 6.52	
